Consider two substances from patent US20110105392A1 (ELI LILLY AND COMPANY, priority 2008, published 2011).

The conditions of series [1]: calculated from published PK profiles; cited from earlier work.
For the next series, the system named is healthy volunteers. Nature of the series: Euglycaemic glucose clamp after single SC dose in healthy volunteers. The format is in vivo, human. Here is the method:
In all treatment periods, subjects undergo a euglycaemic clamp procedure for up to 24/36 hours following each insulin compound injection. Glucose infusion rates (GIR) are adjusted to maintain euglycaemia, with the documented GIR over time providing the GD measure of insulin action. The aim of the euglycaemic glucose clamp is to maintain euglycaemia through glucose infusion after the administration of a dose of an insulin compound. It is assumed that endogenous insulin secretion and hepatic glucose output are minimal and that any glucose that is translocated out of the glucose space (i.e., glucose metabolised) is the direct consequence of the administered exogenous insulin. The GIR in this case will be the glucodynamic (GD) measure of the insulin action over time. All glucose clamp studies are performed after an overnight fast of approximately 8 hours. On the morning of the study, a small catheter is placed into a vein of one arm, ideally in the ante-cubital fossa, for administration of 20% dextrose solution (buffered to near neutral pH) under the control of a volumetric pump. Another catheter is placed, ideally in the wrist or hand for venous glucose sampling. This area is heated with a warming device to approximately 55-60° C. for sampling arterialized venous blood. Blood samples are obtained at the bedside for immediate determination of whole blood glucose concentrations using an automated glucose oxidase technique. After basal blood sampling and a stabilization period of approximately 30 minutes, each subject receives a dose of insulin compound administered subcutaneously. The start of the subcutaneous injection of an insulin compound is defined as time zero. Following completion of dosing, in conjunction with frequent blood sampling for measurement of blood glucose, glucose is infused intravenously at a variable rate in order to maintain euglycaemia for up to 24 or 36 hours after insulin administration.
Blood sampling occurs approximately every 10 minutes for approximately 30 minutes prior to dosing and continued every 5-10 minutes for the first 2 hours after dosing (with the option to sample as frequently as every 2.5 minutes), and then reduced to 10-30 minute intervals up to the end of clamp.
During the glucose clamp, the glucose infusion rate is adjusted to maintain a pre-determined target blood glucose concentration for the individual subject. Preferably, the target concentration is close to the fasting blood glucose. The aim of the glucose clamp procedure is to maintain the blood glucose concentrations within +5% of the pre-dose target value, which is defined as 5 mg/dL below the mean fasting blood glucose. Thus, blood glucose concentrations are kept constant while the GIR varied. […]

insulin glargine: the “peak-trough (PT) ratio” value in series [1] is reported as 1.2-2.6.

As to “LY: 20 kDa PEGylated insulin lispro, about 95% or more at B28, prepared essentially as in Example 9”, the “time GD maintained” value with healthy volunteers (Part C, 0.5 mg/kg SC) is reported as “greater than 36 hours”. For the same substance, in the series on healthy volunteers (Part C, 0.5 mg/kg SC, glargine 0.5 U/kg), the “GIR profile versus peak GIR response for glargine” value is “exceeded the peak GIR response for glargine”. Also, in the series on healthy volunteers (humans), the “within subject variability in the glucodynamics” value is recorded as “less than 30%”. Moreover, the duration of action result in the series on healthy volunteers (humans, versus insulin glargine (FIG. 2)) was “longer than that of insulin glargine”.
